Measured values: patent publication US12472177B2, “Bicyclic compounds and methods for their use in treating Pitt Hopkins syndrome” (NEUREN PHARMACEUTICALS LIMITED, priority 2019, dated 2025)

Key:
[1] = Delivery of cG-2-AllylP into the brain after oral administration (CSF, blood, brain exposure); format: in vivo, Sprague Dawley rats; details: rat
Description: In an in vivo study, male Sprague Dawley rats (aged 14 weeks) received a single dose of cG-2-AllylP, either 100 mg/kg or 200 mg/kg by oral gavage. Cerebrospinal fluid (CSF) and whole blood were collected at 1.5 and 4 hours postdose, and brain tissue was collected at 4 hours postdose to evaluate cG-2-AllylP exposure.

Tcf4^+/− mice [2] = experiment: Self grooming (repetitive behavior); format: in vivo, mouse; parameters: key to Self-Grooming/Repetitive Behavior: Tukey’s Multiple Comparison Test Summary: **** = p < 0.00001; ns = not significant
Description: (§1) In vivo behavioral studies were conducted in Tcf4^+/− mutant and wildtype littermate control (WT) mice by Gen.DDI (Santiago, Chile). Littermate controls consist of the genotypes Tcf4^+/+. All Tcf4 mutant mice used were heterozygous for the Tcf4 mutation because homozygous mutations of Tcf4 result in embryonic to postnatal day 1 lethality. Ten mice per treatment group, 14 weeks of age, were used for behavioral experiments. Experiments were conducted in line with the requirements of the UK Animals (Scientific Procedures) Act, 1986. The mice were housed in plastic cages (35×30×12 cm), 5 in each and habituated to the animal facilities for at least a week before commencing the test. The room temperature (21° C.±2° C.), relative humidity (55%±5%), a 12-hour light-dark cycle (lights on 7 AM to 7 PM), and air exchange were automatically controlled. The animals had free access to commercial food pellets and water. Testing was performed during the light phase of the circadian cycle, with the order of testing being determined by the principle of conducting the most stressful tests last. Assays were designed to reproduce and expand on the original behavioral characterization of Tcf4^+/− mice. Tcf4^+/− and WT control mice were treated for 6 weeks prior to testing and tested 30 minutes following a dose of cG-2-AllylP, as described in Table 2 below.
Repetitive self-grooming is a feature of mice. Tcf4^+/− mice show an increased amount of self-grooming compared to wild type mice. To see if NNZ-2591 (cG-2-AllylP) can normalize self-grooming behavior in Tcf4^+/− mice, we carried out a series of studies, as shown in FIG. 3.
The amount of time spent grooming in seconds during a 10-minute test period is shown on the vertical axis, and the animals and treatments are shown on the horizontal axis. Wild type (WT) mice treated with vehicle alone (left column) self-groomed for about 110 sec. […] This difference was not statistically significant. […] This statistically significant finding was completely unexpected in Tcf4^+/− mice.

Tcf4^+/− mice [3] = experiment: Open field (hypoactivity, distance travelled); format: in vivo, mouse; parameters: key to Open Field (Hypoactivity): Tukey’s Multiple Comparison Test Summary: **** = p < 0.00001; ns = not significant
Description: as §1
The Open Field (OF) test is a combined test that is used to determine anxiety/hyperactivity, and for habituation to a novel environment, one of the most elementary forms of learning, in which decreased exploration as a function of repeated exposure to the same environment is taken as an index of memory. This is normally studied in two sessions of exposure to the open field, a 10-min and a 24 hr habituation session.
The device used for this study is a grey PVC enclosed arena 50×30 cm divided into 10 cm squares. Mice are brought to the experimental room 5-20 min before testing. A mouse is placed into a corner square facing the corner and observed for 3 min. The number of squares entered (whole body) and rears (both front paws off the ground, but not as part of grooming) are counted. The latency to the first rear is also noted. The movement of the mouse around the field was recorded with a video tracking device for 300 s (vNT4.0, Viewpoint). The latency for the mouse to enter the brightest, central part of the field total time spent in this central region, and total activity (in terms of path length in centimetres), were recorded.
The open field (OF) test is a test used to characterize explorative behavior, anxiety, and/or hypo- and hyperactivity in animals habituated to daily handling under novel and familiar conditions. During exposure to the open field mice will habituate to the environment and thus explore less, decreasing the amount movement they show over time.
In the present experiment, we recorded movement and rearing during an initial exposure (T1), during a second exposure after 10 minutes (T2) and during a third exposure after 24 hours (T3). Failures to reduce locomotion or rearing at 10 minutes and 24 hours indicate deficits in short- and long-term memory, respectively.
To evaluate whether cG-2-AllylP is effective to treat the hypoactivity in PTHS, we carried out Open Field studies. Lower scores on measures of open field locomotion were detected in Tcf4^+/− as compared to WT littermates, across the 30-minute test session.
The relative distance travelled is shown on the vertical axis, and the animals and their treatments are shown on the horizontal axis. Wild type (WT) mice treated with vehicle alone (left column) were considered to travel 100%. […] The effect of NNZ-2591 (cG-2-AllylP) were statistically significant.

[4] = single oral dose 100 mg/kg, 1.5 h postdose
[5] = single oral dose 100 mg/kg, 4 h postdose
[6] = single oral dose 200 mg/kg, 1.5 h postdose
[7] = single oral dose 200 mg/kg, 4 h postdose
[8] = Tcf4^+/− + cG-2-AllylP (100 mg/kg) vs Tcf4^+/− + cG-2-AllylP (200 mg/kg)
[9] = Tcf4^+/− + cG-2-AllylP (100 mg/kg) vs WT + cG-2-AllylP (200 mg/kg)
[10] = Tcf4^+/− + vehicle vs Tcf4^+/− + cG-2-AllylP (200 mg/kg)
[11] = Tcf4^+/− + vehicle vs WT + cG-2-AllylP (100 mg/kg)
[12] = WT + cG-2-AllylP (100 mg/kg) vs Tcf4^+/− + cG-2-AllylP (100 mg/kg)
[13] = WT + cG-2-AllylP (100 mg/kg) vs Tcf4^+/− + cG-2-AllylP (200 mg/kg)
[14] = WT + cG-2-AllylP (100 mg/kg) vs WT + cG-2-AllylP (200 mg/kg)
[15] = WT + cG-2-AllylP (200 mg/kg) vs Tcf4^+/− + cG-2-AllylP (200 mg/kg)
[16] = WT + vehicle vs Tcf4^+/− + cG-2-AllylP (100 mg/kg)
[17] = WT + vehicle vs Tcf4^+/− + cG-2-AllylP (200 mg/kg)
[18] = WT + vehicle vs WT + cG-2-AllylP (100 mg/kg)
[19] = WT + vehicle vs WT + cG-2-AllylP (200 mg/kg)
[20] = WT mice, 100 mg/kg oral BID 6 weeks

C=CC[C@]12CCCN1C(=O)CNC2=O [cG-2-AllylP, (8aS)-Allyl-hexahydropyrrolo[1,2-a]pyrazine-1,4-dione]
Dose dependence of concentration in blood, CSF and brain ([1]; 100 vs 200 mg/kg single oral dose, blood and CSF at 1.5 h, blood, CSF and brain at 4 h): approximately proportional increase | Concentration in blood compared with brain tissue ([1]; 4 hours post dose): approximately equivalent | Concentration of cG-2-AllylP in Blood [1, 4]: 58.5 µg/mL | Concentration of cG-2-AllylP in CSF [1, 4]: 40.4 µg/mL | Concentration of cG-2-AllylP in Blood [1, 5]: 15.6 µg/mL | Concentration of cG-2-AllylP in Brain [1, 5]: 22.6 µg/mL | Concentration of cG-2-AllylP in CSF [1, 5]: 11.0 µg/mL | Concentration of cG-2-AllylP in Blood [1, 6]: 116.0 µg/mL | Concentration of cG-2-AllylP in CSF [1, 6]: 82.2 µg/mL | Concentration of cG-2-AllylP in Blood [1, 7]: 34.2 µg/mL | Concentration of cG-2-AllylP in Brain [1, 7]: 37.0 µg/mL | Concentration of cG-2-AllylP in CSF [1, 7]: 24.7 µg/mL | Self-Grooming/Repetitive Behavior: Tukey’s Multiple Comparison Test Summary (Tcf4^+/− mice [2]; [8]): ns | Self-Grooming/Repetitive Behavior: Tukey’s Multiple Comparison Test Summary (Tcf4^+/− mice [2]; [9]): ns | Self-Grooming/Repetitive Behavior: Tukey’s Multiple Comparison Test Summary (Tcf4^+/− mice [2]; Tcf4^+/− + vehicle vs Tcf4^+/− + cG-2-AllylP (100 mg/kg)): **** (**** = p < 0.0001) | Self-Grooming/Repetitive Behavior: Tukey’s Multiple Comparison Test Summary (Tcf4^+/− mice [2]; [10]): **** (**** = p < 0.0001) | Self-Grooming/Repetitive Behavior: Tukey’s Multiple Comparison Test Summary (Tcf4^+/− mice [2]; [11]): **** (**** = p < 0.0001) | Self-Grooming/Repetitive Behavior: Tukey’s Multiple Comparison Test Summary (Tcf4^+/− mice [2]; Tcf4^+/− + vehicle vs WT + cG-2-AllylP (200 mg/kg)): **** (**** = p < 0.0001) | Behavior Normalized to WildType Levels: Self-groom (Tcf4^+/− mice [2]; Tcf4^+/− mice, 100 mg/kg): ✓ | Time spent self-grooming during a 10-minute test period (Tcf4^+/− mice [2]; Tcf4^+/− mice, 100 mg/kg oral BID 6 weeks, 100 mg/kg): corrected | Time spent self-grooming during a 10-minute test period (Tcf4^+/− mice [2]; Tcf4^+/− mice, 100 mg/kg oral BID 6 weeks, listed as NNZ-2591, 100 mg/kg): about the same amount of time self-grooming as WT vehicle treated mice | Behavior Normalized to WildType Levels: Self-groom (Tcf4^+/− mice [2]; Tcf4^+/− mice, 200 mg/kg): ✓ | Time spent self-grooming during a 10-minute test period (Tcf4^+/− mice [2]; Tcf4^+/− mice, 200 mg/kg oral BID 6 weeks, 200 mg/kg): corrected | Time spent self-grooming during a 10-minute test period (Tcf4^+/− mice [2]; Tcf4^+/− mice, 200 mg/kg oral BID 6 weeks, listed as NNZ-2591, 200 mg/kg): about the same amount of time self-grooming as WT vehicle treated mice | Self-Grooming/Repetitive Behavior: Tukey’s Multiple Comparison Test Summary (Tcf4^+/− mice [2]; [12]): ns | Self-Grooming/Repetitive Behavior: Tukey’s Multiple Comparison Test Summary (Tcf4^+/− mice [2]; [13]): ns | Self-Grooming/Repetitive Behavior: Tukey’s Multiple Comparison Test Summary (Tcf4^+/− mice [2]; [14]): ns | Self-Grooming/Repetitive Behavior: Tukey’s Multiple Comparison Test Summary (Tcf4^+/− mice [2]; [15]): ns | Self-Grooming/Repetitive Behavior: Tukey’s Multiple Comparison Test Summary (Tcf4^+/− mice [2]; [16]): ns | Self-Grooming/Repetitive Behavior: Tukey’s Multiple Comparison Test Summary (Tcf4^+/− mice [2]; [17]): ns | Self-Grooming/Repetitive Behavior: Tukey’s Multiple Comparison Test Summary (Tcf4^+/− mice [2]; [18]): ns | Self-Grooming/Repetitive Behavior: Tukey’s Multiple Comparison Test Summary (Tcf4^+/− mice [2]; [19]): ns | Time spent self-grooming during a 10-minute test period (Tcf4^+/− mice [2]; [20]): about the same amount of time as did WT mice treated with vehicle alone | Open Field (Hypoactivity): Tukey’s Multiple Comparison Test Summary (Tcf4^+/− mice [3]; [8]): ns | Open Field (Hypoactivity): Tukey’s Multiple Comparison Test Summary (Tcf4^+/− mice [3]; [9]): ns | Open Field (Hypoactivity): Tukey’s Multiple Comparison Test Summary (Tcf4^+/− mice [3]; Tcf4^+/− + vehicle vs Tcf4^+/− + cG-2-AllylP 1 (200 mg/kg) [r21-22]): **** (**** = p < 0.00001) | Open Field (Hypoactivity): Tukey’s Multiple Comparison Test Summary (Tcf4^+/− mice [3]; Tcf4^+/− + vehicle vs Tcf4^+/− + cG-2-AllylP (100 mg/kg) [r23-24]): **** (**** = p < 0.00001) | Open Field (Hypoactivity): Tukey’s Multiple Comparison Test Summary (Tcf4^+/− mice [3]; [10]): **** (**** = p < 0.00001) | Open Field (Hypoactivity): Tukey’s Multiple Comparison Test Summary (Tcf4^+/− mice [3]; [11]): **** (**** = p < 0.00001) | Behavior Normalized to WildType Levels: Open Field (Tcf4^+/− mice [3]; Tcf4^+/− mice, 100 mg/kg): ✓ | Relative distance travelled (mobility), open field (Tcf4^+/− mice [3]; Tcf4^+/− mice, 100 mg/kg oral BID 6 weeks): nearly identical mobility as did WT mice treated with vehicle alone | Behavior Normalized to WildType Levels: Open Field (Tcf4^+/− mice [3]; Tcf4^+/− mice, 200 mg/kg): ✓ | Relative distance travelled (mobility), open field (Tcf4^+/− mice [3]; Tcf4^+/− mice, 200 mg/kg oral BID 6 weeks): normalized this mild to moderate hypoactivity | Open Field (Hypoactivity): Tukey’s Multiple Comparison Test Summary (Tcf4^+/− mice [3]; [12]): ns | Open Field (Hypoactivity): Tukey’s Multiple Comparison Test Summary (Tcf4^+/− mice [3]; [13]): ns | Open Field (Hypoactivity): Tukey’s Multiple Comparison Test Summary (Tcf4^+/− mice [3]; [14]): ns | Open Field (Hypoactivity): Tukey’s Multiple Comparison Test Summary (Tcf4^+/− mice [3]; [15]): ns | Open Field (Hypoactivity): Tukey’s Multiple Comparison Test Summary (Tcf4^+/− mice [3]; [16]): ns | Open Field (Hypoactivity): Tukey’s Multiple Comparison Test Summary (Tcf4^+/− mice [3]; [17]): ns | Open Field (Hypoactivity): Tukey’s Multiple Comparison Test Summary (Tcf4^+/− mice [3]; [18]): ns | Open Field (Hypoactivity): Tukey’s Multiple Comparison Test Summary (Tcf4^+/− mice [3]; [19]): ns | Relative distance travelled (mobility), open field (Tcf4^+/− mice [3]; [20]): slightly higher mobility than WT mice treated with vehicle | Relative distance travelled (mobility), open field (Tcf4^+/− mice [3]; WT mice, 200 mg/kg oral BID 6 weeks): nearly the same mobility
